Test system: 941728-121-R-J1-PDC complex spheroid viability
Assay: Anticancer human tumor 941728-121-R-J1-PDC patient-derived lung adenocarcinoma cell line growth inhibition [RAS]
Details: for viability, T/C: stronger effect = lower value
Procedure, shortened: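 Tumour cells grown as complex spheroids with HUVEC endothelial cells and mesenchymal stem cells, treated with RAS pathway inhibitor combinations. Each agent spans half-log steps from near clinical Cmax, or 10 microM where Cmax is unknown.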

[1] = curve of first compound, second compound 0.00316 µM
[2] = curve of first compound, second compound 0.01 µM
[3] = curve of first compound, second compound 0.0316 µM
[4] = curve of first compound, second compound 0.1 µM
[5] = curve of first compound, second compound 0.316 µM
[6] = curve of first compound, second compound 1 µM
[7] = second compound 0.00316 µM, first compound 0.0316 µM
[8] = second compound 0.00316 µM, first compound 0.1 µM
[9] = second compound 0.00316 µM, first compound 0.316 µM
[10] = second compound 0.00316 µM, first compound 1 µM
[11] = second compound 0.01 µM, first compound 0.0316 µM
[12] = second compound 0.01 µM, first compound 0.1 µM
[13] = second compound 0.01 µM, first compound 0.316 µM
[14] = second compound 0.01 µM, first compound 1 µM
[15] = second compound 0.0316 µM, first compound 0.0316 µM
[16] = second compound 0.0316 µM, first compound 0.1 µM
[17] = second compound 0.0316 µM, first compound 0.316 µM
[18] = second compound 0.0316 µM, first compound 1 µM
[19] = second compound 0.1 µM, first compound 0.0316 µM
[20] = second compound 0.1 µM, first compound 0.1 µM
[21] = second compound 0.1 µM, first compound 0.316 µM
[22] = second compound 0.1 µM, first compound 1 µM
[23] = second compound 0.316 µM, first compound 0.0316 µM
[24] = second compound 0.316 µM, first compound 0.1 µM
[25] = second compound 0.316 µM, first compound 0.316 µM
[26] = second compound 0.316 µM, first compound 1 µM
[27] = second compound 1 µM, first compound 0.0316 µM
[28] = second compound 1 µM, first compound 0.1 µM
[29] = second compound 1 µM, first compound 0.316 µM
[30] = second compound 1 µM, first compound 1 µM
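Note: spheroids exposed to compounds for 7 days before readout.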
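Throughout, for viability, T/C: 100% = DMSO vehicle control viability.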

## CCN1CCN(Cc2ccc(Nc3ncc(F)c(-c4cc(F)c5nc(C)n(C(C)C)c5c4)n3)nc2)CC1 + C=CC(=O)N1CCN(c2nc(OCC3CCCN3C)nc3c(F)c(-c4nc(N)cc(C)c4C(F)(F)F)c(Cl)cc23)C(C)C1
[1]
  IC50: < 3.16 nM
[2]
  IC50: < 3.16 nM
[3]
  IC50: < 3.16 nM
[4]
  IC50: < 3.16 nM
[5]
  IC50: < 3.16 nM
[6]
  IC50: < 3.16 nM
Second compound 0.00316 µM, first compound 0.00316 µM
  viability, T/C: 21.3%
Second compound 0.00316 µM, first compound 0.01 µM
  viability, T/C: 18.4%
[7]
  viability, T/C: 18.1%
[8]
  viability, T/C: 20.8%
[9]
  viability, T/C: 15.6%
[10]
  viability, T/C: 15.6%
Second compound 0.01 µM, first compound 0.00316 µM
  viability, T/C: 20.1%
Second compound 0.01 µM, first compound 0.01 µM
  viability, T/C: 18.5%
[11]
  viability, T/C: 17.5%
[12]
  viability, T/C: 15.9%
[13]
  viability, T/C: 13.1%
[14]
  viability, T/C: 12.6%
Second compound 0.0316 µM, first compound 0.00316 µM
  viability, T/C: 18.4%
Second compound 0.0316 µM, first compound 0.01 µM
  viability, T/C: 20.1%
[15]
  viability, T/C: 14.6%
[16]
  viability, T/C: 13.5%
[17]
  viability, T/C: 13.8%
[18]
  viability, T/C: 15.1%
Second compound 0.1 µM, first compound 0.00316 µM
  viability, T/C: 18.8%
Second compound 0.1 µM, first compound 0.01 µM
  viability, T/C: 19%
[19]
  viability, T/C: 18.6%
[20]
  viability, T/C: 15.8%
[21]
  viability, T/C: 14.4%
[22]
  viability, T/C: 13.5%
Second compound 0.316 µM, first compound 0.00316 µM
  viability, T/C: 18%
Second compound 0.316 µM, first compound 0.01 µM
  viability, T/C: 17.4%
[23]
  viability, T/C: 18.5%
[24]
  viability, T/C: 17.3%
[25]
  viability, T/C: 13.2%
[26]
  viability, T/C: 13.9%
Second compound 1 µM, first compound 0.00316 µM
  viability, T/C: 21.6%
Second compound 1 µM, first compound 0.01 µM
  viability, T/C: 18.8%
[27]
  viability, T/C: 20.6%
[28]
  viability, T/C: 16.5%
[29]
  viability, T/C: 14.7%
[30]
  viability, T/C: 13.2%

## CC1(C)CCC(Nc2ncc(C(F)(F)F)c(-c3c[nH]c4c(P(C)(C)=O)c(C#N)ccc34)n2)CN1 (stereo not drawn)
Compound 0.000949 µM
  viability, T/C: 83.9% [middle of 4 runs]
Compound 0.003 µM
  viability, T/C: 79.2% [middle of 4 runs]
Compound 0.00949 µM
  viability, T/C: 62.7% [middle of 4 runs]
Compound 0.03 µM
  viability, T/C: 63.8% [middle of 4 runs]
Compound 0.0949 µM
  viability, T/C: 65% [middle of 4 runs]
Compound 0.3 µM
  viability, T/C: 53.4% [middle of 4 runs]
Curve of compound
  IC50: > 300 nM

## C=CC(=O)N1CCN(c2nc(OCC3CCCN3C)nc3c(F)c(-c4nc(N)cc(C)c4C(F)(F)F)c(Cl)cc23)C(C)C1 (stereo not drawn) + CCn1c(-c2cccnc2C(C)OC)c2c3cc(ccc31)N1CCOC(CC(NC(=O)C(C(C)C)N(C)C(=O)C3(F)CCN(C(=O)C#CC(C)(C)N(C)C)CC3)C(=O)N3CCCC(N3)C(=O)OCC(C)(C)C2)C1
Curve of first compound, second compound 0.000949 µM
  IC50: < 3.16 nM
Curve of first compound, second compound 0.003 µM
  IC50: < 3.16 nM
Curve of first compound, second compound 0.00949 µM
  IC50: < 3.16 nM
Curve of first compound, second compound 0.03 µM
  IC50: < 3.16 nM
Curve of first compound, second compound 0.0949 µM
  IC50: < 3.16 nM
Curve of first compound, second compound 0.3 µM
  IC50: < 3.16 nM
Second compound 0.000949 µM, first compound 0.00316 µM
  viability, T/C: 22.3%
Second compound 0.000949 µM, first compound 0.01 µM
  viability, T/C: 23.4%
Second compound 0.000949 µM, first compound 0.0316 µM
  viability, T/C: 20.6%
Second compound 0.000949 µM, first compound 0.1 µM
  viability, T/C: 22.8%
Second compound 0.000949 µM, first compound 0.316 µM
  viability, T/C: 22.8%
Second compound 0.000949 µM, first compound 1 µM
  viability, T/C: 19.9%
Second compound 0.003 µM, first compound 0.00316 µM
  viability, T/C: 26.6%
Second compound 0.003 µM, first compound 0.01 µM
  viability, T/C: 22.7%
Second compound 0.003 µM, first compound 0.0316 µM
  viability, T/C: 21.4%
Second compound 0.003 µM, first compound 0.1 µM
  viability, T/C: 24.5%
Second compound 0.003 µM, first compound 0.316 µM
  viability, T/C: 23.2%
Second compound 0.003 µM, first compound 1 µM
  viability, T/C: 19%
Second compound 0.00949 µM, first compound 0.00316 µM
  viability, T/C: 24.7%
Second compound 0.00949 µM, first compound 0.01 µM
  viability, T/C: 21.1%
Second compound 0.00949 µM, first compound 0.0316 µM
  viability, T/C: 22.7%
Second compound 0.00949 µM, first compound 0.1 µM
  viability, T/C: 23.4%
Second compound 0.00949 µM, first compound 0.316 µM
  viability, T/C: 20.6%
Second compound 0.00949 µM, first compound 1 µM
  viability, T/C: 20.5%
Second compound 0.03 µM, first compound 0.00316 µM
  viability, T/C: 22.4%
Second compound 0.03 µM, first compound 0.01 µM
  viability, T/C: 22.5%
Second compound 0.03 µM, first compound 0.0316 µM
  viability, T/C: 25.3%
Second compound 0.03 µM, first compound 0.1 µM
  viability, T/C: 24.8%
Second compound 0.03 µM, first compound 0.316 µM
  viability, T/C: 18.7%
Second compound 0.03 µM, first compound 1 µM
  viability, T/C: 23.6%
Second compound 0.0949 µM, first compound 0.00316 µM
  viability, T/C: 22.7%
Second compound 0.0949 µM, first compound 0.01 µM
  viability, T/C: 23.9%
Second compound 0.0949 µM, first compound 0.0316 µM
  viability, T/C: 23.4%
Second compound 0.0949 µM, first compound 0.1 µM
  viability, T/C: 23.4%
Second compound 0.0949 µM, first compound 0.316 µM
  viability, T/C: 22.6%
Second compound 0.0949 µM, first compound 1 µM
  viability, T/C: 25.4%
Second compound 0.3 µM, first compound 0.00316 µM
  viability, T/C: 22.7%
Second compound 0.3 µM, first compound 0.01 µM
  viability, T/C: 25%
Second compound 0.3 µM, first compound 0.0316 µM
  viability, T/C: 22.4%
Second compound 0.3 µM, first compound 0.1 µM
  viability, T/C: 21.4%
Second compound 0.3 µM, first compound 0.316 µM
  viability, T/C: 21%
Second compound 0.3 µM, first compound 1 µM
  viability, T/C: 28%

## C[C@@H](NC(=O)c1ncnc(N)c1Cl)c1ncc(C(=O)Nc2cc(C(F)(F)F)c(Cl)cn2)s1 + C=CC(=O)N1CCN(c2nc(OCC3CCCN3C)nc3c(F)c(-c4nc(N)cc(C)c4C(F)(F)F)c(Cl)cc23)C(C)C1
[1]
  IC50: < 31.6 nM
[2]
  IC50: < 31.6 nM
[3]
  IC50: < 31.6 nM
[4]
  IC50: < 31.6 nM
[5]
  IC50: < 31.6 nM
[6]
  IC50: < 31.6 nM
[7]
  viability, T/C: 21.6%
[8]
  viability, T/C: 21%
[9]
  viability, T/C: 21.2%
[10]
  viability, T/C: 25.4%
Second compound 0.00316 µM, first compound 3.16 µM
  viability, T/C: 23.1%
Second compound 0.00316 µM, first compound 10 µM
  viability, T/C: 20.7%
[11]
  viability, T/C: 26.2%
[12]
  viability, T/C: 23.9%
[13]
  viability, T/C: 23.3%
[14]
  viability, T/C: 27.1%
Second compound 0.01 µM, first compound 3.16 µM
  viability, T/C: 20.5%
Second compound 0.01 µM, first compound 10 µM
  viability, T/C: 20.2%
[15]
  viability, T/C: 22.3%
[16]
  viability, T/C: 22%
[17]
  viability, T/C: 20.9%
[18]
  viability, T/C: 22%
Second compound 0.0316 µM, first compound 3.16 µM
  viability, T/C: 23.5%
Second compound 0.0316 µM, first compound 10 µM
  viability, T/C: 20.4%
[19]
  viability, T/C: 26.8%
[20]
  viability, T/C: 24.9%
[21]
  viability, T/C: 22.5%
[22]
  viability, T/C: 23.1%
Second compound 0.1 µM, first compound 3.16 µM
  viability, T/C: 21.9%
Second compound 0.1 µM, first compound 10 µM
  viability, T/C: 20.9%
[23]
  viability, T/C: 20.1%
[24]
  viability, T/C: 20.9%
[25]
  viability, T/C: 21%
[26]
  viability, T/C: 21.6%
Second compound 0.316 µM, first compound 3.16 µM
  viability, T/C: 24.9%
Second compound 0.316 µM, first compound 10 µM
  viability, T/C: 22.2%
[27]
  viability, T/C: 23.4%
[28]
  viability, T/C: 30.2%
[29]
  viability, T/C: 22.1%
[30]
  viability, T/C: 22.5%
Second compound 1 µM, first compound 3.16 µM
  viability, T/C: 27.3%
Second compound 1 µM, first compound 10 µM
  viability, T/C: 22.4%
